Measured values as given in patent US10954258B2, “STAT3 dimerization inhibitors” (H. LEE MOFFITT CANCER CENTER AND RESEARCH INSTITUTE, INC., priority 2012, dated 2021).
Blank lines part the entries; values can stand above or below the molecule they belong to. [ ]: non-standard residue; d: D form. pY = N[C@@H](Cc1ccc(OP(=O)(O)O)cc1)C(=O)O

How the values were obtained:
[1] = tested on: STAT3-DNA binding activity in MDA-MB-468 and A-549 cells; assay: STAT3-DNA binding filter plate assay on nuclear extracts; type: cell-based, human; settings: 1, 2 or 4 hours
Method: Nuclear extract preparation was carried out as described in Yu, et al., Science 1995; 269(5220):81-83. The STAT3-DNA binding filter plate assay was performed following the manual of the filter plate assay kit (Signosis, Sunnyvale, Calif.), as described for NFkB (Ying, et al., Blood 2011; 117(4):1301-1307). The TF Binding buffer was mixed with the STAT3 probe (biotin labeled STAT3 DNA binding sequence) and nuclear extract and incubated at 16° C. for 30 minutes to form the STAT3-DNA complex. The STAT3-DNA complex was then separated from free probe by using a filter plate. After several steps of binding and washing, bound STAT3 probe is retained on the filter in the corresponding well of Filer Plate and the free DNA probe is removed. The bound pre-labeled STAT3 probe was then eluted from the filter plate by centrifuge with elution buffer. Eluted probes were then hybridized into 96-well Hybridization Plate for quantitative analysis. The captured STAT3 probe was further detected by conjugation with streptavidin-HRP. The chemiluminescence of each well was detected by 2104 EnVisionR Multilabel Reader of PerkinElmer (Pekin Elmer, Waltham, Mass., USA) within 5 minutes after mixture with substrates. […]

[2] = tested on: P-STAT3 in the nucleus of MDA-MB-468 cells; assay: P-STAT3 nuclear accumulation by immunofluorescence; type: cell-based, human; settings: 18 hours, various concentrations
[3] = molecular target: binding of FLAG-STAT3 to HA-STAT3 (Mus musculus, UniProt P42227); assay: co-immunoprecipitation of FLAG-STAT3 with HA-STAT3 in HEK293 cells; type: cell-based, human; settings: HEK293 cells co-expressing FLAG- and HA-STAT3; treated 4 h
Method: HEK-293/FLAG-STAT3/HA-STAT3 cells were treated for 4 h with vehicle, S3I-1757, S3I-1756, Ac-G{pTYR}LPQTV-[…]-NH2 (SEQ ID NO:3) or Ac-GYLPQTV-[…]-NH2 (SEQ ID NO:4) and then lysed in 20 mM Tris-HCl (pH 7.4), 5 mM EDTA, 10 mM Na4P2O7, 100 mM NaF, 2 mM Na3VO4, 1% NP-40.1 mM PMSF and 10 mg/ml aprotinin. For EGF stimulation group, HEK-293/FLAG-STAT3/HASTAT3 cells were treated by 100 ng/ml EGF for 30 minutes before making cell lysate. Protein A or G agarose (EMD Millipore, Billerica, Mass., USA) was washed twice with PBS and restore to 50% slurry with PBS. 500 μg of lysate were pre-cleared by mixture of protein A and protein G-agarose for 1 h at 4° C. and then remove protein A and G-agarose by centrifuge at 1300 rpm for 3 minutes. And then 500 μg of lysate was immunoprecipitated with 50 ng of HA antibody overnight at 4° C. on shaker and then capture the immunocomplex by adding 100 μl Protein A and G agarose/sepharose bead slurry for 1 hour at 4° C. Samples were washed five times with lysis buffer and then boiled in 5×SDS-PAGE sample buffer and run on SDS-PAGE gel. Protein was transferred to nitrocellulose membrane and then blotted as described above for HA, FLAG, pSTAT3, EGFR, and STAT3.
However, the FP assay only measured the ability of S3I-1757 to displace the 7 amino acid fluorescein-labelled GpYLPQTV phosphotyrosine peptide from the SH2 domain of STAT3 protein in vitro. Therefore, it was determined if the intracellular reciprocal binding of 2 full-length STAT3 proteins is inhibited. To this end, an assay was developed to measure directly STAT3-STAT3 dimerization in intact cells by cloning HA-tagged STAT3 and FLAG-tagged STAT3, generating HEK293 cells that stably co-express HA-STAT3 and FLAG-STAT3 and using these cells for coimmunoprecipitation and co-localization. […] This assay was validated by treating the FLAG-STAT3/HA-STAT3 HEK293 cells with tyrosine phosphorylated or nonphosphorylated GYLPQTV peptide fused to a membrane-translocating sequence (MTS) to allow cell uptake. […]

[4] = tested on: human breast and liver cancer xenografts; settings: human breast and liver cancer xenografts in mouse models; cited from earlier work

Sequence of binding of FLAG-STAT3 to HA-STAT3 (P42227 whole entry): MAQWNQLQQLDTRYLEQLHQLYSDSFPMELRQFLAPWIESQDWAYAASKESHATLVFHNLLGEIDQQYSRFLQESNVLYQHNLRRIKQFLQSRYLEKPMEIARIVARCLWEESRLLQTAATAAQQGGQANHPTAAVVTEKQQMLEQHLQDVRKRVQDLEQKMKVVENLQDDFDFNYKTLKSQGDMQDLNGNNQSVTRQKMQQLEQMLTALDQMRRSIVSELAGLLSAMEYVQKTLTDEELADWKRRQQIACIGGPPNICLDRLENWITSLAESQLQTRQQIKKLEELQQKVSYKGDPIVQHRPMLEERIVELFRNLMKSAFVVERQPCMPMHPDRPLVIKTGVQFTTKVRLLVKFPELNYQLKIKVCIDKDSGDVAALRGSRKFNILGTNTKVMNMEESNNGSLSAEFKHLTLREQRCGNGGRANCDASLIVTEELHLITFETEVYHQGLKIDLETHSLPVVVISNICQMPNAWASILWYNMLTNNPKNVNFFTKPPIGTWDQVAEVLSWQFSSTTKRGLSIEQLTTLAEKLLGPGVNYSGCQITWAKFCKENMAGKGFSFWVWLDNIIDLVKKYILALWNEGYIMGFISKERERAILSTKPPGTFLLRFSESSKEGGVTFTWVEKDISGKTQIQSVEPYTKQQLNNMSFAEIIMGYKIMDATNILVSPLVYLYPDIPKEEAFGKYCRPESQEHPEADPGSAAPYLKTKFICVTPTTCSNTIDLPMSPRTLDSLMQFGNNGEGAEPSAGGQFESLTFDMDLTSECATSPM

Molecule: O=C(Nc1ccc(CP(=O)(O)O)cc1)c1ccc(Oc2ccccc2)cc1 [Compound 18c, 4-(4-Phenoxybenzamido)benzylphosphonic acid]
melting point: > 250 °C

Molecule: COc1ccc(CN(C(=O)c2ccc(Oc3ccccc3)cc2)c2ccc(O)c(C(=O)O)c2)cc1 [Compound 20b, 2-Hydroxy-5-(N-(4-methoxybenzyl)-4-phenoxybenzamido)benzoic acid]
activated STAT3 in nuclear extracts capable of binding the STAT3 DNA binding probe [1]: did not decrease the amount of STAT3 capable of binding DNA
P-STAT3 nuclear accumulation [2]: little effect with concentrations as high as 200 μM
binding of FLAG-STAT3 to HA-STAT3 (co-immunoprecipitation) [3]: did not inhibit this binding with concentrations as high as 200 μM

Molecule: Cc1ccc(S(=O)(=O)OCC(=O)Nc2ccc(C(=O)O)c(O)c2)cc1 [Compound S3I-201]
antitumor effects in xenografts [4]: exert antitumor effects against human breast and liver cancer xenografts in mouse models

Molecule: Ac-G{pTYR}LPQTV-AAVLLPVLLAAP-NH2 (Ac-G[pY]LPQTVAAVLLPVLLAAP-NH2; SMILES CC(=O)NCC(=O)N[C@@H](Cc1ccc(OP(=O)(O)O)cc1)C(=O)N[C@@H](CC(C)C)C(=O)N1CCC[C@H]1C(=O)N[C@@H](CCC(N)=O)C(=O)N[C@H](C(=O)N[C@H](C(=O)N[C@@H](C)C(=O)N[C@@H](C)C(=O)N[C@H](C(=O)N[C@@H](CC(C)C)C(=O)N[C@@H](CC(C)C)C(=O)N1CCC[C@H]1C(=O)N[C@H](C(=O)N[C@@H](CC(C)C)C(=O)N[C@@H](CC(C)C)C(=O)N[C@@H](C)C(=O)N[C@@H](C)C(=O)N1CCC[C@H]1C(N)=O)C(C)C)C(C)C)C(C)C)[C@@H](C)O) [P-Pep, reference compound]
binding of FLAG-STAT3 to HA-STAT3 (co-immunoprecipitation) [3]: inhibited FLAG-STAT3 from co-immunoprecipitating with HA-STAT3

Further lines, results first:

melting point: 182.7 °C (dec.)
Molecule: O=C(c1ccc(Oc2ccccc2)cc1)N(Cc1ccc(C2CCCCC2)cc1)c1ccc(P(=O)(O)O)cc1 [Compound 17a, 4-(N-(4-Cyclohexylbenzyl)-4-phenoxybenzamido)phenylphosphonic acid]

melting point: 188 °C (dec.)
Molecule: O=C(c1ccc(Oc2ccccc2)cc1)N(Cc1ccc(C2CCCCC2)cc1)c1ccc(CP(=O)(O)O)cc1 [Compound 17c, 4-(N-(4-Cyclohexylbenzyl)-4-phenoxybenzamido)benzylphosphonic acid]

melting point: 97 °C (dec.)
Molecule: O=C(c1ccc(Oc2ccccc2)cc1)N(Cc1ccc(C2CCCCC2)cc1)c1cccc(CP(=O)(O)O)c1 [Compound 17d, 3-(N-(4-Cyclohexylbenzyl)-4-phenoxybenzamido)benzylphosphonic acid]
